Among the data in ChEMBL document CHEMBL3576827, “New anti-inflammatory tocopherol-derived metabolites from the Taiwanese soft coral Cladiella hirsuta” (Bioorg Med Chem Lett, 2015) are IC50 and inhibition values, retold here.

Each structure is given as a SMILES string.

What all share (conditions): Neutrophil
The nature of test [1]: Antiinflammatory activity in human neutrophils assessed as inhibition of fMLP/CB-induced superoxide anion generation by measuring superoxide dismutase-inhibitable reduction of ferricytochrome c preincubated for 5 mins followed by fMLP/CB-induction measured after 10 mins by spectrophotometric analysis. Format: functional, cell-based.
The nature of test [2]: Antiinflammatory activity in human neutrophils assessed as inhibition of fMLP/CB-induced elastase release using MeO-Suc-Ala-Ala-Pro-Val-p-nitroanilide as elastase substrate at 10 uM preincubated for 5 mins followed by fMLP/CB-induction by spectroscopic analysis. The class given is functional.
Test [3] is described as follows: Antiinflammatory activity in human neutrophils assessed as inhibition of fMLP/CB-induced elastase release using MeO-Suc-Ala-Ala-Pro-Val-p-nitroanilide as elastase substrate preincubated for 5 mins followed by fMLP/CB-induction by spectroscopic analysis. Format: functional, cell-based.
The nature of test [4]: Antiinflammatory activity in human neutrophils assessed as inhibition of fMLP/CB-induced superoxide anion generation by measuring superoxide dismutase-inhibitable reduction of ferricytochrome c at 10 uM preincubated for 5 mins followed by fMLP/CB-induction measured after 10 mins by spectrophotometric analysis. The class given is functional.

For orientation: IC50 means the concentration that gives 50% inhibition. A word on the inhibition: it is the share of the control response that was lost under treatment. On to `COC(=O)C(C)CCC[C@]1(C)CC[C@]2(O1)C(=O)C(C)=C(C)[C@@]2(O)C(C)=O` (stereo not given in full), for which the IC50 came out at 4.1 µM in test [1] and 3.7 µM in test [3]. For the same compound, the inhibition at 10 µM was 89.5% in test [2] and 78.3% in test [4].

`COC(=O)C(C)CCCC(C)(O)CCC1=C(C)C(=O)C2(C)OC2(C)C1=O` (stereo not given): the IC50 in test [1] and in test [3] was > 10 µM each time. Moreover, the inhibition at 10 µM worked out at 21.2% in test [2] and 8.5% in test [4].

Turning to `O=c1cc(N2CCOCC2)oc2c(-c3ccccc3)cccc12` [LY-294002], the IC50 in test [1] turned out to be 0.6 µg/mL; in test [3], 1.2 µg/mL.
